From PMC12843137, “Fine-Tuning Side Chain Substitutions: Impacts on the Lipophilicity–Solubility–Permeability Interplay in Macrocyclic Peptides” (Marine Drugs, 2025)
≈ marks a conversion by molar mass, not a printed value. Read-outs that look alike come from different tables or passages of the source.

Legend:
[1] = Caco-2 cell permeability study; format: in vitro ADME; details: human; for efflux ratio at 2 h, 5 µM: Caco-2, pH 7.4; for recovery at 2 h, 5 μM: Caco-2, pH 7.4, Caco-2, 5 μM; for Papp A→B at 2 h, 5 µM / Papp B→A at 2 h, 5 µM: pH 7.4, Caco-2, 5 μM; for Papp A→B at 2 h, 5 µM: apical to basolateral; for Papp B→A at 2 h, 5 µM: basolateral to apical
Description: One of the physicochemical quantities that mirrors the interaction of a compound with the cell membrane is permeability. Traditionally, measuring permeability with the PAMPA model provides estimates of passive permeability across a model membrane. […] Therefore, we measure the cell permeability of the six compounds using Caco-2 cells, so that the apical to basolateral (A to B) and basolateral to apical (B to A) permeabilities, and thereby the efflux ratio, can be determined. Three commercial drugs (Table 2) are used as standard compounds to establish and validate our in-house assay.
For Caco-2 cells (originally obtained from the American Type Culture Collection; ATCC, Manassas, VA, USA), 50 μL and […] of cell culture medium are added to each well of the Transwell insert and reservoir, respectively. And then the HTS transwell plates are incubated at 37 °C, 5% CO2 for 1 h before cell seeding. Caco-2 cells are diluted to 6.86 × 10^5 cells/mL with culture medium and 50 μL of cell suspension is dispensed into the filter well of the 96-well HTS Transwell plate. Cells are cultivated for 14–18 days in a cell culture incubator at 37 °C, 5% CO2, 95% relative humidity. Cell culture medium is replaced every other day, beginning no later than 24 h after initial plating. Stock solutions of the test compounds are prepared at a concentration of 10 mM in DMSO. […] Detailed assay procedures are provided in the SI. […]
dilution factor is changed according to the log D value and the LC-MS signal response. The samples are evaluated by LC-MS/MS analysis. All experiments are performed in duplicates.
5. Caco-2 Cell Permeability Assay
The Caco-2 plate is removed from the incubator and washed twice with pre-warmed HBSS (10 mM HEPES, pH 7.4), and then incubated at 37 °C for 30 minutes. The stock solutions of control compounds and test compounds are diluted in DMSO to get 1 mM solutions and then diluted with HBSS (10 mM HEPES, pH 7.4) get 5 μM working solutions. The final concentration of DMSO in the incubation system is 0.5%. To determine the rate of drug transport in the apical to basolateral direction. 125 μL of 5 μM working solution of control compounds and test compounds are added to the Transwell insert (apical compartment), and transfer 50 μL sample (D0 sample) immediately from the apical compartment to a new 96-well plate. Fill the wells in the receiver plate (basolateral compartment) with 235 μL of HBSS (10 mM HEPES, pH 7.4). To determine the rate of drug transport in the basolateral to apical direction. 285 μL of 5 μM working solution of control compounds and test compounds are to the receiver plate wells (basolateral compartment), and transfer 50 μL sample (D0 sample) immediately from the basolateral compartment to a new 96-well plate.
Fill the wells in the Transwell insert (apical compartment) with 75 μL of HBSS (10 mM HEPES, pH 7.4).
The assay is performed in duplicate. The plates are incubated at 37 °C for 2 h. At the end of the incubation, 50 μL samples from donor sides (apical compartment for Ap→Bl flux, and basolateral compartment for Bl→Ap) and receiver sides (basolateral compartment for Ap→Bl flux, and apical compartment for Bl→Ap) are transferred to wells of a new 96-well plate, followed by the addition of 4 volume of cold acetonitrile containing appropriate internal standards (IS). Samples are Vortexed for 5 minutes and then centrifuged at 3,220 g for 30 minutes. An aliquot of 100 µL of the supernatant is mixed with an appropriate volume of ultra-pure water before LC-MS/MS analysis (see SI Bioanalytical Method for Caco-2 Cell Permeability […]
Papp (A to B) is greater than the Papp (A to B) of minoxidil it is assigned as high permeability. If the Papp (A to B) is […]

[2] = Kinetic solubility in PBS pH 7.4; format: physicochemical; details: sodium phosphate buffer (PBS), 25 °C, pH 7.4, aqueous buffer, kinetic from dmso stock, PBS pH 7.4, 25 °C
Protocol: (§1) One explanation for the high IC50 values (i.e., low activity) of the new compounds is their potential poor solubility in aqueous solution or inadequate lipophilicity. To investigate this hypothesis, we determined kinetic solubility in […] phosphate buffer at pH 7.4 (Table 1). […] The remaining two compounds, BE and 29, show low solubilities (<0.1 μM). […] Additionally, since approximately 95% of drugs are ionizable, assessment of lipophilicity at pH 7.4 (log D7.4) is essential during the initial phases of drug discovery. In this study, we employ the shake-flask method to evaluate this property. […] Because lipophilicity directly reflects compound–membrane interaction, the activity of these compounds against PANC-1 cells likely stems from their interaction with the cell membrane.
Solubility is determined in 100 mM sodium phosphate buffer (PBS), pH 7.4. The stock solutions of test compound and control compound progesterone are prepared in DMSO at a concentration of 10 mM. 30 µL of working solutions of each sample is placed in order into their proper 96-well rack. 970 µL of PBS pH 7.4 is added into each vial of the cap-less Solubility Sample plate. The assay is performed in duplicate. Add one stir stick to each vial and seal using a molded PTFE/Silicone plug. Then the Solubility Sample plate is transferred to the Eppendorf Thermomixer Comfort plate shaker and shaken at 25 °C at 1100 RPM for 2 h. After completion of the 2 h, plugs are removed and the stir sticks are removed using a big magnet, the samples from the Solubility Sample plate are transferred into the filter plate. Using the Vacuum Manifold, all the samples are filtered. Aliquot of 5 µL is taken from the filtrate, followed by addition of 5 µL DMSO and 490 µL of a mixture of H2O and acetonitrile (1:1 in v/v). 200 μL of diluent is transferred to a new 96-well plate for LC-MS/MS analysis (see SI Bioanalytical Method for Solubility Measurement). The dilution factor is changed according to the solubility values and the LC-MS signal response.
MRM) / -4500 v (negative MRM). […]
13. Bioanalytical Method for Solubility Measurement
MS analysis: Triple Quad TM 5500 instrument from AB Inc (Canada) with an ESI interface
Injection volume: 1 μL, 3 μL, 5 μL or 10 μL
Column: ACQUITY UPLC BEH C18 (2.1 × 50 mmI.D. S-1.7 μm, 12 nm) Column
Mobile phase: 0.1% Ammonium hydroxide solution in water (A) and 0.1% Ammonium hydroxide solution
Column: XSelect Hss T3 2.5μm (2.1 × 50 mm) Column XP
Mobile phase: 0.1% formic acid in water (A) and 0.1% formic acid in acetonitrile (B)

[3] = log D7.4 by shake-flask method (1-octanol/PBS); format: physicochemical
Protocol: as §1
The basic solution is titrated with the acidic solution to achieve pH 7.4, with the pH verified and adjusted to 7.4 ± 0.1 on the experiment day. Saturated 1-octanol and PBS (pH 7.4) are also prepared. The stock solutions of test compounds and control compound progesterone are prepared in DMSO at a concentration of 10 mM (0.666 mM: compound 39). The detailed procedure for log D determinations can be found in the SI. […]
4. Procedure for log D determinations […]
µL of phosphate buffer saturated 1-octanol to get a concentration of 300 µM working solution. 20 µL of 300 µM compound solution is placed in order into their proper 96-well rack followed by the addition of 980 µL of 1-octanol saturated phosphate buffer. One stir stick is added to each vial and vials are sealed molded PTFE/Silicone plugs. Then the log D plate is transferred to the Eppendorf Thermomixer Comfort plate shaker and shaken at 25°C at 1,100 RPM for 1 h. The assay is performed in duplicate. After completion of 1 h, the stir sticks are removed using a big magnet. The samples are then centrifuged at 25°C at 20,000 g for 20 minutes to separate the phases, and syringe is used to remove the lower (buffer) phases to the empty tubes. Then the buffer phase is diluted with the same volume of acetonitrile/ultrapure water (50%/50%) for LC-MS/MS analysis. 300 µM working solution is diluted with acetonitrile/ultrapure water (50%/50%) to achieve a concentration of 3 µM. Then the 3 µM solution is diluted to 0.3 µM to get the total samples by adding 4 volumes of acetonitrile/ultrapure water (50%/50%) and 5 volumes of 1-octanol saturated Phosphate Buffer for LC-MS/MS analysis. […]
test compounds and control compound is placed in order into their 2.0 mL deep well plate, 500 µL of […]
followed by the addition of 500 µL of saturated PBS (pH 7.4). Seal the plate using a Silicone sealing mat.
Then the log D plate is transferred to the Eppendorf Thermomixer Comfort plate shaker and shaken at 25°C at 2,000 RPM for 2 h. After completion of 2 h, the samples are then centrifuged at 25°C at 3,220 g for 30 minutes to separate the phases, and pipette are used to remove the upper (1-octanol) and lower (buffer) phases to the empty tubes, respectively. Aliquots of 50 µL are taken from upper phases followed by addition of 450 µL of acetonitrile (containing internal standards (IS, 200 nM labetalol, 100 nM tolbutamide and 100 nM ketoprofen)). Mix with a pipette, and then aliquots of 50 µL are taken from the diluent followed by addition of 450 µL of acetonitrile (containing internal standards (IS, 200 nM labetalol, 100 nM tolbutamide and 100 nM ketoprofen)). […]

[4] = read-out: Mean % Solution Recovery A to B
[5] = read-out: Mean % Solution Recovery B to A

efflux ratio at 2 h, 5 µM [1]	recovery at 2 h, 5 μM [1, 4] [%]	recovery at 2 h, 5 μM [1, 5] [%]	Papp A→B at 2 h, 5 µM [1] [×10⁻⁶ cm/s]	Papp B→A at 2 h, 5 µM [1] [×10⁻⁶ cm/s]	solubility at 2 h [2] [µM]	logD ([3]; 1-octanol/PBS, pH 7.4, 1-Octanol/PBS pH 7.4, shake-flask)	log D7.4 ([3]; 1-Octanol/PBS pH 7.4, shake-flask)	Compound
25.9	83.2	95	0.77	20	–	–	–	C[C@H]1O[C@@H](O[C@H]2[C@@H](O)C[C@H](O[C@H]3[C@@H](O)C[C@H](O[C@H]4CC[C@@]5(C)[C@H](CC[C@@H]6[C@@H]5C[C@@H](O)[C@]5(C)[C@@H](C7=CC(=O)OC7)CC[C@]65O)C4)O[C@@H]3C)O[C@@H]2C)C[C@H](O)[C@@H]1O [Digoxin, reference compound]
–	–	–	–	–	13.1 (≈ 4.13 µg/mL)	3.85	–	CC(=O)[C@H]1CC[C@H]2[C@@H]3CCC4=CC(=O)CC[C@]4(C)[C@H]3CC[C@]12C [Progesterone, reference compound]
1.08	104	106	9.52	10.3	–	–	–	Nc1cc(N2CCCCC2)nc(N)[n+]1[O-] [Minoxidil, reference compound]
1.26	99.5	48.6	0.0836	0.105	–	–	−0.30	C[C@@H]1C(=O)[C@](C)(O)C(=O)NCC(=O)N[C@H](CN2CCN(C)CC2)/C=C/C(=O)N(C)CC(=O)O[C@H]1CCCCCc1cn(CCCCCCCCCC(=O)O)nn1 [Compound 39]
